We go through two compounds from patent publication US4883791A, “25S,26-dihydroxycholecalciferol in the treatment of hypercalcitriolemic disease states” (Board of Regents, The University of Texas System, priority 1987, dated 1989).

Molecules are shown by their SMILES. Entries after “also recorded” stand apart in the source; their conditions may differ.

Series [1] in a line: Effect of 25S,26(OH)2 D3 administration on 1,25(OH)2 D3 mediated increases in serum 1,25(OH)2 D3. The class given is in vivo, Sprague-Dawley rats (adult female). The settings on record: for serum 1,25(OH)2 D: mean ± SE. From the text: (§1) Adult female Sprague-Dawley rats weighing between 190-200 g were used in all studies and were purchased from Harlan (Houston, TX). The animals were housed in the animal resource facility and were fed a standard vitamin D-replete rat chow diet (2.0% calcium and 0.9% phorphorus, Tekland, Winfield, OH) ad lib. After four to five days of equlibration the animals were divided into appropriate study groups and injected subcutaneously each day with various doses of 25(S),26(OH)2 D3 or 1,25(OH)2 D3 metabolites. In some experiments, animals received both metabolites as two separate injections. Control animals received only vehicle (propylene glycol).
Two ml of serum was obtained for each rat for measurement of 25(S),26(OH)2 D3, and 1,25-(OH)2 D3. After spiking the samples with approximately 1200 cpm of radiolabeled 250HD3, 24,25-(OH)2 D3 and 1,25(OH)2 D3 and allowing the samples to equilibrate for 30 minutes, isolation of the vitamin D metabolites was accomplished as described in Bishop JE, Norman AW, Coburn JW, Roberts PA, Henry, HL 1980 "Determination of the concentration of 25-hydroxyvitamin D, 24,25-dihydroxyvitamin D and 1,25-dihydroxyvitamin D in a single two-milliliter plasma sample." Min Elect Metab 3: 181. Further separation and partial purification of the metabolites was effected with lipohilic Sephadex (Sigma, St. Louis, MO) liquid gel chromatography using a 9:1:1:0.015 (hexane:chloroform:methanol:H2 O) solvent system and a 10×1 cm gel bed as previously described by Eisman JA, Hamstra AJ, Kream BD, DeLuca HF, 1975, "A sensitive, precise and convenient method for determination of 1,25-dihydroxyvitamin D in human plasma." Arch Biochem Biophys 176: 235. This chromatographic system effectively separates 250HD (5-11 ml) from the dihydroxy metabolites (14-30 ml). The trihydroxy metabolite 1,25,26(OH)3 D is eluted from the column by changing the solvent system to 8:2:2:0.015 (hexane:chloroform:methanol:H2 O) after elution of the dihydroxy metabolites and collecting the next 12 ml.
Final resolution and purification of the vitamin D metabolites was performed with high pressure liquid chromatography as previously described in Zerwekh et al., 1983, "Extra-renal production of 24,25-dihydroxyvitaminD in chronic renal failure during 25-hydroxyvitamin D3 therapy." Kid Int. 23: 401 and Pak et al., 1982, "Effects of short-term glucocorticoid administration in primary hyperparathyroidism: comparison to sarcoidiosis J. Clin. Endrocrinol Metab. 54: 824. 250HD was purified on a 5% 2-propanol in hexane solvent system. The three dihydroxyvitamin D metabolites were isolated and purified using an 11% 2-propanol in hexane solvent system. The assay of 25S,26-(OH)2 D was performed using the rat serum vitamin D binding protein assay system described in Haddad JG, Chyu KF 1971 "competitive protein binding assay for 25-hydroxycholecalciferol." J Clin Endocrinol Metab 33: 992. The assay of 1,25(OH)2 D was accomplished using the chick intestinal receptor protein.
(§2) Values in parenthesis represent p value of significant difference between
(§3) dosed and control animals as determined by nonparametric analysis and
(§4) Welch's approximation to the t test. All values expressed as mean ± SE
(§5) for seven rats per group.
(§6) ^a 1,25(OH)2 D3 administered subcutaneously at a dose of
(§7) 0.15 μg/d/rat for three days
(§8) ^b 25S,26(OH)2 D3 administered subcutaneously for seven day
(§9) at a dose of 20 μg/d/rat; on days 5, 6, and 7 both 25S,26(OH)2
(§10) D3 and 1,25(OH)2 D3 (0.15 μg/d/rat) were given as two

Series [2] in a line: Serum 25S,26(OH)2 D level after administration (rat serum vitamin D binding protein assay). The format is in vivo, Sprague-Dawley rats (adult female). The settings on record: mean ± SE.
Source text: as §1
Two ml of serum was obtained for each rat for measurement of 25(S),26(OH)2 D3, and 1,25-(OH)2 D3. […] This chromatographic system effectively separates 250HD (5-11 ml) from the dihydroxy metabolites (14-30 ml). The trihydroxy metabolite 1,25,26(OH)3 D is eluted from the column by changing the solvent system to 8:2:2:0.015 (hexane:chloroform:methanol:H2 O) after elution of the dihydroxy metabolites and collecting the next 12 ml.
250HD was purified on a 5% 2-propanol in hexane solvent system. The three dihydroxyvitamin D metabolites were isolated and purified using an 11% 2-propanol in hexane solvent system. […] The assay of 1,25(OH)2 D was accomplished using the chick intestinal receptor protein.
as §2, §3, §4, §5, §6, §7, §8, §9, §10

Turning to `C=C1/C(=C\C=C2/CCC[C@]3(C)[C@@H]([C@H](C)CCCC(C)(C)O)CC[C@@H]23)C[C@@H](O)C[C@@H]1O` [1,25(OH)2 D3, 1α,25-dihydroxycholecalciferol, reference compound], the “serum 1,25(OH)2 D” value in series [1] (Exp. 1, 1,25(OH)2 D3 alone, 0.15 μg/d/rat s.c., three days, seven rats, control 25 ± 3, p < 0.001) is 206 ± 17 pg/mL; in series [1] (Exp. 2, 1,25(OH)2 D3 alone s.c., seven rats, control 23 ± 3, p = 0.006), 175 ± 52 pg/mL; in series [1] (Exp. 3, 1,25(OH)2 D3 alone s.c., seven rats, control 27 ± 4, p < 0.001), 180 ± 45 pg/mL. In addition, the “serum 25S,26(OH)2 D” value in series [2] (Exp. 1, 1,25(OH)2 D3 alone, 0.15 μg/d/rat s.c., three days, seven rats, control 1.9 ± 0.2) was 3.0 ± 0.8 ng/mL; in series [2] (Exp. 2, 1,25(OH)2 D3 alone s.c., seven rats, control 2.0 ± 0.2) it was 3.20 ± 0.3 ng/mL; in series [2] (Exp. 3, 1,25(OH)2 D3 alone s.c., seven rats, control 1.20 ± 0.1), 0.9 ± 0.3 ng/mL.
`C=C1CC[C@H](O)C/C1=C/C=C1\CCC[C@]2(C)[C@@H]([C@H](C)CCC[C@](C)(O)CO)CC[C@@H]12` [25S,26(OH)2 D3, 25S,26-dihydroxycholecalciferol]: the “serum 1,25(OH)2 D” value in series [1] (Exp. 1, 25S,26(OH)2 D3 20 μg/d/rat s.c. seven days + 1,25(OH)2 D3 0.15 μg/d/rat days 5, 6, 7, control 25 ± 3) stood at 59 ± 3 pg/mL; in series [1] (Exp. 2, 25S,26(OH)2 D3 + 1,25(OH)2 D3 s.c., seven rats, control 23 ± 3), 46 ± 4 pg/mL; in series [1] (Exp. 3, 25S,26(OH)2 D3 + 1,25(OH)2 D3 s.c., seven rats, control 27 ± 4), 38 ± 6 pg/mL. Also, in series [1] (result in words), the “reduction of serum / endogenous 1,25-dihydroxycholecalciferol” value was “lowers endogenous levels of 1α,25-dihydroxycholecalciferol; also recorded: active in reducing serum concentrations of 1,25-dihydroxycholecalciferol”. The “serum 25S,26(OH)2 D” value in series [2] (Exp. 1, 25S,26(OH)2 D3 20 μg/d/rat s.c. seven days + 1,25(OH)2 D3 0.15 μg/d/rat days 5, 6, 7, control 1.9 ± 0.2, p < 0.001) worked out at 295 ± 7 ng/mL; in series [2] (Exp. 2, 25S,26(OH)2 D3 + 1,25(OH)2 D3 s.c., seven rats, control 2.0 ± 0.2, p < 0.01) it was 168 ± 14 ng/mL; in series [2] (Exp. 3, 25S,26(OH)2 D3 + 1,25(OH)2 D3 s.c., seven rats, control 1.20 ± 0.1, p < 0.006), 236 ± 28 ng/mL.
